Results published in patent US20090305969A1, “Skin Repair Accelerating Therapeutic Agent Containing Desacyl Ghrelin and Derivatives Thereof as Active Ingredient” (priority 2005, published 2009).
Where no end group is shown, it is not given here. The star is where a group is joined. Octanoyl = CCCCCCCC(=O)*

Columns and labels:
[1] = test system: cultured fetal skin cell; experiment: Proliferation activity in cultured fetal skin cell (BrdU uptake, Proliferation ELISA); format: cell-based, rat; conditions: 24 hours incubation, BrdU 10 μM, versus control medium, FIG. 2
Method: The skin cells of a rat fetus were collected from a Wistar rat on the 17th day of pregnancy, and a dispersion liquid thereof was obtained in the same manner as in Example 1. The dispersed cells were suspended in a MCDB153HAA medium (F-Peptide Co., Ltd., Yamagata, Japan) containing 2% fetal bovine serum, penicillin (100 U/mL), streptomycin (100 μg/mL) and epidermal growth factor EGF (5 ng/mL), and sowed on a polyethyleneimine coated 96-hole multi-well plate in an amount of 3×10^4 cells/well. Desacyl ghrelin (0.05 to 500 μmol/mL (nM)) or desacyl ghrelin (1-15)-NH2 (SEQ ID NO: 22) (0.001 to 1 μmol/mL (nM)) and 5-bromo-2′-deoxyuridine (BrdU) (10 μM) were added thereto, which was then incubated for 24 hours. A medium containing neither desacyl ghrelin nor desacyl ghrelin (1-15)-NH2 was used as a control. After the culture was over, cells were collected, and then uptake quantity of BrdU into the fetal skin cell was measured using Proliferation ELISA Kit (Roche Diagnostic GmbH. Manheim, Germany) to consider the skin cell growth activity.
Uptake of BrdU increased when desacyl ghrelin or desacyl ghrelin (1-15)-NH2 acted on a cultured fetal skin cell.

[2] = test system: skin cell of rat fetus; experiment: Intracellular calcium increasing activity in single cultured skin cell of rat fetus (Fura-2 calcium imaging); format: cell-based; conditions: for cell response in calcium imaging (FIG. 1 curves): single fetal rat skin cell, ghrelin and desacyl ghrelin added to different cells, concentration not given
Method: A Wistar rat on the 17th day of pregnancy underwent laparotomy under anesthesia for fetus extraction. A small piece of skin was collected from the fetus, treated with collagenase in cold Hank's solution, digested with papain, and mechanically separated by pipetting. This gave a dispersion liquid of the fetal skin cells. A single cell was obtained from the dispersion liquid, ghrelin was added thereto, and calcium imaging was performed. For the calcium imaging, a calcium imaging device (IMACS, Hamamatsu Photonics) was used. That is, the ratio of the emission at a wavelength of 510 nm was measured when excitation was performed by 340 nm/380 nm light. Fura-2 was used as a calcium imaging agent. Desacyl ghrelin derived from a rat (SEQ ID NO: 3) was used.
In FIG. 1, I, II and III are the points at which a photograph was taken, but the photographs are omitted from the present description. […] Ghrelin and desacyl ghrelin were added to different cells, respectively.
It was shown that a receptor that responds to desacyl ghrelin existed in the skin cell of the rat fetus, and that addition of desacyl ghrelin increased intracellular calcium, inducing the activity of desacyl ghrelin.

Substance | uptake of BrdU into the fetal skin cell ([1]; desacyl ghrelin (1-15)-NH2 0.001 to 1 μmol/mL (nM)) | intracellular calcium ([2]; 1×10^−6 M, skin cell of a single rat fetus, Fura-2 ratio 340 nm/380 nm, FIG. 1) | cell response in calcium imaging (FIG. 1 curves) [2] | uptake of BrdU into the fetal skin cell ([1]; desacyl ghrelin 0.05 to 500 μmol/mL (nM))
desacyl ghrelin (1-15)-NH2: Peptide of the N terminus to the 15th amino acid residue of desacyl ghrelin, the 15th amino acid amidated (GSSFLSPEHQKAQQR-NH2; listed as Rattus norvegicus) | increased | – | – | –
desacyl ghrelin: Ghrelin peptide without the acyl (octanoyl) group at the third serine; rat sequence GSSFLSPEHQKAQQRKESKKPPAKLQPR (SEQ ID NO: 3) (PEPTIDE (1)..(28) Amino acid sequence for rat endogenous peptides of growth hormone secretagogue receptor; listed as Rattus norvegicus) | – | increase of intracellular calcium was observed | responded | increased
ghrelin: 28-residue peptide hormone, third amino acid from the N terminus acylated with fatty acid (n-octanoyl); acts on GHS-R1a (GSS(Octanoyl)FLSPEHQRVQQRKESKKPPAKLQPR; UniProt Q9UBU3 24-51, looked up) [reference compound] | – | – | responded | –
